{
  "source": "patent US20060293386A1",
  "about": "“Method for treating cancer” (priority 2005, published 2006)",
  "key": {"[1]": {"test": "Side effects of GM among 22 cases", "assay_type": "in vivo, patients", "settings": "among 22 cases including pancreatic disease cases", "from_the_text": "Side effects of GM used in the present invention already include shock, anaphylaxis, bleeding tendency, granulocytopenia, fall in blood pressure, elevation of GOT and GPT, facial flushing and the like; among 22 cases including pancreatic disease cases, shock: 0 case, anaphylaxis: 3 cases, bleeding tendency: 0 case, slight granulocytopenia: 22 cases, significant fall in blood pressure: 0 case, elevation of GOT and GPT: 2 cases, and withdrawal: 0."}, "[2]": {"system": "HCC (hepato cellular carcinoma)", "test": "Transition of AFP (tumor marker) values in GM-administered HCC patients", "assay_type": "in vivo", "settings": "for Average AFP value: GM-administered HCC group with abnormal AFP values; for Effect on AFP values (in words): GM-administered HCC patients, 100-300 mg intravenous drip infusion", "from_the_text": "(§1) AFP (Alpha-fetoprotein) and PIVKA-II (isomer of prothrombin) were used as tumor markers of HCC. […] In general, it is often difficult to determine the shrinkage of cancer lesions by CT scanning or echo imaging immediately after conducting TAE, therefore these markers are used to determine the effects. In Japan, the conventional Alpha-feto Riabeads method has been replaced by the Chemilumi ACS-AFP method since May 2004. The former is a radiation immunoassay whose standard value is ≦20. Meanwhile, the latter is a chemiluminescence immunoassay whose standard value is ≦10.\nHCC patients and AFP-positive (precancerous lesions or regenerating hepatocytes) patients without HCC observed on the images ([…] as “GM”) dissolved in 150-300 ml of physiological saline or of 5% glucose by intravenous drip infusion. GM is originally a drug applicable to chronic pancreatitis, acute pancreatitis, and DIC (disseminated intravascular coagulation), however, informed consent was obtained before the administration. And in allergy cases, the starting dose was 75-100 mg and increased. The nonadministered group is GM-nonadministered HCC cases.\nIn general, AFP and PIVKA-II values are considered to represent cancer viability in hepato cellular carcinoma cases. GM is considered to suppress the viability, since GM suppresses AFP and PIVKA-II values. […]\nAs described above, GM administration after TAE was conducted 10 days after TAE was completed. And GM was considered effective if suppression was observed 4 months after TAE was completed."}, "[3]": {"system": "HCC (hepato cellular carcinoma)", "test": "Transition of PIVKA-II (tumor marker) values in GM-administered HCC patients", "assay_type": "in vivo", "from_the_text": "as §1\nHCC patients and AFP-positive (precancerous lesions or regenerating hepatocytes) patients without HCC observed on the images (on CT or echo exam) were given 100-300 mg of gabexate mesilate (hereinafter referred to as “GM”) dissolved in 150-300 ml of physiological saline or of 5% glucose by intravenous drip infusion. GM is originally a drug applicable to chronic pancreatitis, acute pancreatitis, and DIC (disseminated intravascular coagulation), however, informed consent was obtained before the administration. And in allergy cases, the starting dose was 75-100 mg and increased. The nonadministered group is GM-nonadministered HCC cases.\nIn general, AFP and PIVKA-II values are considered to represent cancer viability in hepato cellular carcinoma cases. […]"}},
  "note": "Values joined by “and” are separate entries in the source; they are usually repeats but may differ in a detail not shown here. Equal values may be shown once. “Also recorded” adds a separate entry of the source. Read-outs that look alike come from different tables or passages of the source.",
  "data": [
    {"smiles": "CCOC(=O)c1ccc(OC(=O)CCCCCN=C(N)N)cc1.CS(=O)(=O)O", "note": "[GM, gabexate mesilate]", "values": [
      {"measurement": "Side effect: anaphylaxis", "setting": "[1]", "result": 3, "unit": "cases"},
      {"measurement": "Side effect: bleeding tendency", "setting": "[1]", "result": 0, "unit": "case"},
      {"measurement": "Side effect: elevation of GOT and GPT", "setting": "[1]", "result": 2, "unit": "cases"},
      {"measurement": "Side effect: shock", "setting": "[1]", "result": 0, "unit": "case"},
      {"measurement": "Side effect: significant fall in blood pressure", "setting": "[1]", "result": 0, "unit": "case"},
      {"measurement": "Side effect: slight granulocytopenia", "setting": "[1]", "result": 22, "unit": "cases"},
      {"measurement": "Withdrawal", "setting": "[1]", "result": 0},
      {"measurement": "Maximum AFP value", "setting": "[2]; 0 M, GM-administered HCC group", "result": 18.9, "unit": "ng/mL"},
      {"measurement": "Minimum AFP value", "setting": "[2]; 0 M, GM-administered HCC group", "result": 6.5},
      {"measurement": "Average AFP value", "setting": "[2]; 0 M, 7 cases", "result": "11.1 ± 4.8 and 11.1"},
      {"measurement": "AFP value", "setting": "[2]; 0 M, individual GM-administered HCC patient, Chemilumi ACS-AFP method", "result": "18.9 and 15.5 and 8.1 and 7.2 and 8.5 and 6.5 and 13.0"},
      {"measurement": "Increase and decrease in AFP value, Δ 1 M", "setting": "[2]; 1 M versus 0 M, individual GM-administered HCC patient", "result": "−2.7 and −1.3 and 3.6 and 2.4 and 3.3 and 0.3 and −3.4"},
      {"measurement": "Average difference of AFP from the value at 0M", "setting": "[2]; 1 M, GM-administered HCC group", "result": "0.3 and 0.3143"},
      {"measurement": "Maximum AFP value", "setting": "[2]; 1 M, GM-administered HCC group", "result": 19.2, "unit": "ng/mL"},
      {"measurement": "Minimum AFP value", "setting": "[2]; 1 M, GM-administered HCC group", "result": 5.4},
      {"measurement": "Significant difference of AFP versus 0M", "setting": "[2]; 1 M, GM-administered HCC group", "result": "none"},
      {"measurement": "Average AFP value", "setting": "[2]; 1 M, 7 cases", "result": "11.4 ± 5.1 and 11.4"},
      {"measurement": "AFP value", "setting": "[2]; 1 M, individual GM-administered HCC patient, Chemilumi ACS-AFP method", "result": "19.2 and 12.1 and 5.4 and 5.9 and 8.9 and 16.3"},
      {"measurement": "Increase and decrease in AFP value, Δ 2 M", "setting": "[2]; 2 M versus 0 M, individual GM-administered HCC patient", "result": "−1.4 and 3.1 and −0.3 and 2.2 and 1.5 and −6.8"},
      {"measurement": "Maximum AFP value", "setting": "[2]; 2 M, GM-administered HCC group", "result": 20.4, "unit": "ng/mL"},
      {"measurement": "Minimum AFP value", "setting": "[2]; 2 M, GM-administered HCC group", "result": 5.8},
      {"measurement": "Significant difference of AFP versus 0M", "setting": "[2]; 2 M, GM-administered HCC group", "result": "none"},
      {"measurement": "Average AFP value", "setting": "[2]; 2 M, 6 cases", "result": "11.3 ± 5.7 and 11.3"},
      {"measurement": "AFP value", "setting": "[2]; 2 M, individual GM-administered HCC patient, Chemilumi ACS-AFP method", "result": "20.4 and 8.7 and 5.8 and 11.6 and 6.2 and 15.2"},
      {"measurement": "Increase and decrease in AFP value, Δ 3 M", "setting": "[2]; 3 M versus 0 M, individual GM-administered HCC patient", "result": "−3 and −3.2 and 5.1 and 0.2 and 3.7 and 4.1 and −9.4"},
      {"measurement": "Maximum AFP value", "setting": "[2]; 3 M, GM-administered HCC group", "result": 23, "unit": "ng/mL"},
      {"measurement": "Minimum AFP value", "setting": "[2]; 3 M, GM-administered HCC group", "result": 4.0},
      {"measurement": "Significant difference of AFP versus 0M", "setting": "[2]; 3 M, GM-administered HCC group", "result": "none"},
      {"measurement": "Average AFP value", "setting": "[2]; 3 M, 7 cases", "result": "10.7 ± 7.2 and 10.7"},
      {"measurement": "AFP value", "setting": "[2]; 3 M, individual GM-administered HCC patient, Chemilumi ACS-AFP method", "result": "23.0 and 6.1 and 5.1 and 4.0 and 13.6 and 6.7 and 16.7"},
      {"measurement": "AFP value", "setting": "[2]; 3rd case of TABLE 2, 20 mg of GM, when HCC was roughly diagnosed by contrast CT", "result": "8-9"},
      {"measurement": "Current AFP value", "setting": "[2]; 4th case of TABLE 2, 200 mg of GM after TAE", "result": "around 7"},
      {"measurement": "Highest AFP value reached", "setting": "[2]; 4th case of TABLE 2, GM reduced to 75-100 mg because of allergy, before TAE", "result": "up to 70"},
      {"measurement": "Statistical difference of AFP between each month and 0M (in words)", "setting": "[2]; GM-administered HCC patients of TABLE 2", "result": "no significant difference"},
      {"measurement": "Effect on AFP values (in words)", "setting": "[2]", "result": "the elevation of AFP values was suppressed; also recorded: elevation of PIVKA-II and AFP values was not observed"},
      {"measurement": "Effect on AFP values (in words)", "setting": "[2]; listed as gabexate mesilate", "result": "dropped, or their elevation was suppressed; also recorded: suppressed the elevation of AFP values for a prolonged period"},
      {"measurement": "Number of times of effective GM administrations after TAE", "setting": "[2]; cases of TABLE 2, effective if suppression observed 4 months after TAE", "result": 6},
      {"measurement": "Current AFP value", "setting": "[2]; first case of TABLE 2, person, GM 200-300 mg with repeated TAE", "result": 9.0},
      {"measurement": "Number of times of effective GM administrations, single GM administration", "setting": "[2]; single GM-administered cases including 4 cases with abnormal AFP values of unknown etiology, effective if markers suppressed in one month", "result": 7},
      {"measurement": "Effect on PIVKA-II values (in words)", "setting": "[3]", "result": "elevation of PIVKA-II and AFP values was not observed"},
      {"measurement": "Effect on PIVKA-II values (in words)", "setting": "[3]; listed as gabexate mesilate", "result": "dropped, or their elevation was suppressed"}
    ]}
  ]
}
